Results on three compounds are retold here after patent publication US6723331B1, “Termite-controlling agent and a controlling method thereof” (Sumitomo Chemical Company, Limited, priority 1992, dated 2004).

For the assay, the system named is Formosan subterranean termites (Coptotermes formosanus). Nature of the assay: whole plant or invertebrate. The note with it: soil, 72 h. How it is done:
The emulsifiable concentrates obtained in Formulation Examples 1, 2 and 3 were each diluted with distilled water to a predetermined concentration. Five milliliters of every dilute chemicals solution was added to 100 g of sandy loam previously heat-sterilized, and the mixture was thoroughly mixed to prepare a test soil. This test soil was stored at 40° C. under a dark condition. After storage for a predetermined period of time (2 months and 3 months), about 15 g of the test soil was put in a plastic dish (diameter, 9 cm; height, 2 cm) and wetted. Twenty workers of Formosan subterranean termites (Coptotermes formosanus) were liberated in the plastic dish. After the dish was kept at room temperature for 3 days, the condition of the termites was observed.
For comparison, the same test was also carried out using each of fenvalerate and MGK 264.
The same test as in Test Example 1 was carried out using the emulsifiable concentrates obtained in Formulation Examples 6 and 7.
For comparison, the same test was also carried out using each of permethrin and MGK 264.

Where [1] appears, read: read-out: Mortality (%) after 3 days.

Read-outs that look alike come from different tables or passages of the source.

Usually mortality stands for the share of the test organisms that died. For `CCCCC(CC)CN1C(=O)C2C3C=CC(C3)C2C1=O` (centres unmarked) [MGK 264, N-(2-ethylhexyl)bicyclo[2.2.1]hept-5-en-2,3-dicarboximide], under setting [1], the mortality at 500 ppm was found to be 0% and the mortality at 1000 ppm worked out at 0%.
`CC1(C)C(C=C(Cl)Cl)C1C(=O)OCc1cccc(Oc2ccccc2)c1` (centres unmarked) [Permethrin, 3-phenoxybenzyl 3-(2,2-dichlorovinyl)-2,2-dimethylcyclopropanecarboxylate]: the mortality at 125 ppm turned out to be 80% (read-out: Mortality (%) after 3 days, 125 ppm, treated soil stored 2 months at 40° C., Table 2) and 30% (read-out: Mortality (%) after 3 days, 125 ppm, treated soil stored 3 months at 40° C., Table 2).
For the compound `CC(C)C(C(=O)OC(C#N)c1cccc(Oc2ccccc2)c1)c1ccc(Cl)cc1` (stereo not drawn) [Fenvalerate, α-cyano-3-phenoxy-benzyl-2-(4-chlorophenyl)-3-methylbutyrate], the mortality at 125 ppm runs as follows: (read-out: Mortality (%) after 3 days, 125 ppm, treated soil stored 2 months at 40° C., Table 1) 0%; (read-out: Mortality (%) after 3 days, 125 ppm, treated soil stored 3 months at 40° C., Table 1) 0%. Further, the mortality at 250 ppm by setting is: (read-out: Mortality (%) after 3 days, 250 ppm, treated soil stored 2 months at 40° C., Table 1) 0%; (read-out: Mortality (%) after 3 days, 250 ppm, treated soil stored 3 months at 40° C., Table 1) 0%.
